One assay relates to circadian rhythm. Conditions: disclosed in NPLs 4 and 5; cited from earlier work.
Assay [1] relates to Per 2 gene expression rhythm. Nature of the assay: Per 2 gene expression rhythm in Per2::LUC knock-in mouse-derived embryonic fibroblast line (luciferase chemiluminescence, LumiCycle). It is filed as cell-based. Conditions: Per2::LUC mouse embryonic fibroblasts; each substance at 10 μM; FIG. 4. On the procedure:
The cell line used was Per2::LUC knock-in mouse-derived embryonic fibroblast line. Per2::LUC knock-in mouse is a mouse in which the luciferase gene serving as a reporter is introduced downstream of the promoter region of the clock gene Per 2. Therefore, a Per 2::LUC knock-in mouse-derived embryonic fibroblast line expresses the luciferase gene along with periodic expression of the clock gene. When Per 2::LUC knock-in mouse-derived embryonic fibroblasts are cultured in a culture medium containing luciferin, a luciferase substrate, the cells produce chemiluminescence periodically; thus, by monitoring the chemiluminescence, the expression rhythm of the clock gene Per 2 can be evaluated.
At first, about 5×10^5 cells of the Per2::LUC knock-in mouse-derived embryonic fibroblast line were seeded onto 35 mm culture dishes, and then treated with 200 nM dexamethasone for 2 hours to thereby reset (tune) the biorhythm of the cells. […] While the cell culture was continued, the chemiluminescence of the reporter gene was measured real-time with a luminometer (LumiCycle; produced by Actimetrics) for one minute at a frequency of every 10 minutes, and the measurement was continued for 5 days. Amplitude and period length were calculated from the obtained waveform to evaluate the effect of the test substance, a 1:1 mixture of sesamin/episesamin. […]

Each structure is given as a SMILES string.

For `Cn1c(=O)c2c(ncn2C)n(C)c1=O` [caffeine], in the assay on circadian rhythm, the circadian rhythm amplitude result is reported as “amplify circadian rhythm amplitude” and the circadian rhythm period entry is recorded as “lengthen circadian rhythm period”.
In the case of `Oc1cc2c(cc1[C@H]1OC[C@H]3[C@@H]1CO[C@@H]3c1ccc3c(c1)OCO3)OCO2` [sesaminol], the “amplitude of Per 2 gene expression” value in assay [1] is recorded as “capable of increasing the amplitude”.
On the same count and under the same terms, then `c1cc2c(cc1[C@H]1OC[C@H]3[C@@H]1CO[C@@H]3c1ccc3c(c1)OCO3)OCO2` [sesamin], with “capable of increasing the amplitude”.

Source of the values: patent US20180071248A1, “COMPOSITION FOR IMPROVING CIRCADIAN RHYTHM” (SUNTORY HOLDINGS LIMITED, priority 2015, published 2018).
